Laboratory results from ChEMBL document CHEMBL5620344, “Discovery of novel 5-(2-hydroxyphenyl)-2-phthalide-3(3H)-pyrazolones as balanced multifunctional agents against Alzheimer's disease” (Eur J Med Chem, 2023).
Active and inactive are the calls of the source. The rule behind the calls is not given here.

Assays:
Mus musculus [1] = experiment: Antialzheimer activity against amyloid beta (1-42)-induced alzheimer's disease mouse model assessed as decrease in amyloid beta (1 to 42) level in hippocampus at 32 mg/kg and measured on day 6 by ELISA; type: functional, organism-based; settings: time 6.0 day
[2] = Tmax in BALB/c mouse brain at 30 mg/kg, ig; type: ADME, organism-based; settings: po
BV-2 [3] = experiment: Anti-neuroinflammatory activity against LPS-stimulated mouse BV-2 cells assessed as inhibition of TNF-alpha release at 0.5 uM by ELISA; type: functional
[4] = Half life in BALB/c mouse brain at 30 mg/kg, ig; type: ADME, organism-based; settings: po
[5] = target: Amyloid-beta precursor protein (Homo sapiens) (UniProt P05067); experiment: Inhibition of Cu2+-induced amyloid beta (1 to 42) (unknown origin) aggregation at 25 uM by ThT fluorescence assay
Sequence of Amyloid-beta precursor protein (Homo sapiens) (P05067 whole entry): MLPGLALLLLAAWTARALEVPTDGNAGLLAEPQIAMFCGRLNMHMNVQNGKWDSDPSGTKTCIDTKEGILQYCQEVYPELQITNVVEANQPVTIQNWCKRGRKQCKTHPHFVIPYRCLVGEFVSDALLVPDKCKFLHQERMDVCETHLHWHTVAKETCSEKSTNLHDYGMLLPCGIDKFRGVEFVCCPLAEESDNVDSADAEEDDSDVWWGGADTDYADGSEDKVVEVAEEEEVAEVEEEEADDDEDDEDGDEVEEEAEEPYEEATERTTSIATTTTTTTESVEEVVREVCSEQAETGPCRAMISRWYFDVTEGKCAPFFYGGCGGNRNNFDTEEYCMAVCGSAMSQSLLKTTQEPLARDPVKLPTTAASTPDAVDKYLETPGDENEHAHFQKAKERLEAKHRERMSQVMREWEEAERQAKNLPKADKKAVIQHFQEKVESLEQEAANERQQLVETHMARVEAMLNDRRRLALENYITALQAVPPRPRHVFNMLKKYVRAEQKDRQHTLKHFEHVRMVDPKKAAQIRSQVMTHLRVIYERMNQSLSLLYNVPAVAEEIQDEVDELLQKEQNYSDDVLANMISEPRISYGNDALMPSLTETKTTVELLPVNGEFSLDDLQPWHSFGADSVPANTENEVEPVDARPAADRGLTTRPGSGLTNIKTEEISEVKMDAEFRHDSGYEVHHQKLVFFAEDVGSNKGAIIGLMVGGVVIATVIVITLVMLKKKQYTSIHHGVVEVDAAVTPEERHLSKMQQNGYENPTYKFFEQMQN

[6] = target: Amyloid-beta precursor protein (Homo sapiens) (UniProt P05067); experiment: Disaggregation of Cu2+-induced amyloid beta (1 to 42) (unknown origin) preformed fibrils at 25 uM by ThT fluorescence assay
[7] = Antioxidant activity assessed as trolox equivalent of ORAC radical scavenging activity by ORAC-FL assay relative to trolox; type: functional
BV-2 [8] = experiment: Anti-neuroinflammatory activity against LPS-stimulated mouse BV-2 cells assessed as inhibition of TNF-alpha release at 10 uM by ELISA; type: functional
Mus musculus [9] = experiment: Antialzheimer activity against amyloid beta (1-42)-induced alzheimer's disease mouse model assessed as decrease in cognitive impairment by measuring increase in number of crossing the target area in spatial probe trial at 8 to 32 mg/kg and measured on day 6 by Morris water maze test; type: functional, organism-based; settings: dose 8-32 mg/kg, time 6.0 day
[10] = AUC (0 to t) in BALB/c mouse brain at 30 mg/kg, ig; type: ADME, organism-based; settings: in vivo, po
[11] = Half life in BALB/c mouse plasma at 30 mg/kg, ig; type: ADME, organism-based; settings: po
BV-2 [12] = experiment: Anti-neuroinflammatory activity against LPS-stimulated mouse BV-2 cells assessed as inhibition of NO release at 2.5 uM incubated for 24 hrs by Griess reagent based assay; type: functional
[13] = target: T1, Amine oxidase [flavin-containing] B (Homo sapiens, UniProt P27338); experiment: Inhibition of human recombinant MAO-B
T1 sequence (P27338 whole entry): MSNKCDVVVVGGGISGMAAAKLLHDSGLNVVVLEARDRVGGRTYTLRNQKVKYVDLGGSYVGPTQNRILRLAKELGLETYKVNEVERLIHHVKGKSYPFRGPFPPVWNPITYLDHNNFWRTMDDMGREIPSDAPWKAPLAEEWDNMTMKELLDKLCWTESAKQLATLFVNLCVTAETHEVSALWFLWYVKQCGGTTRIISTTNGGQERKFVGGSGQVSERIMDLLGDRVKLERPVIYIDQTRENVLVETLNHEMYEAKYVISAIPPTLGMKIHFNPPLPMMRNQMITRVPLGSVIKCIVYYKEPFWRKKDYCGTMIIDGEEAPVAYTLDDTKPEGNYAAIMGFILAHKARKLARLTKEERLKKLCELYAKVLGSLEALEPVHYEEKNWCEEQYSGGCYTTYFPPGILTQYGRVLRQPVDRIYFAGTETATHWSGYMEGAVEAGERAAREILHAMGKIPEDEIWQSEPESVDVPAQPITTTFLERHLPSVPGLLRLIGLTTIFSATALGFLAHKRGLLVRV

[14] = target: Amyloid-beta precursor protein (Homo sapiens) (UniProt P05067); experiment: Inhibition of self-induced amyloid beta (1 to 42) (unknown origin) aggregation at 25 uM by ThT fluorescence assay
[15] = Cmax in BALB/c mouse plasma at 30 mg/kg, ig; type: ADME, organism-based; settings: po
BV-2 [16] = experiment: Anti-neuroinflammatory activity against LPS-stimulated mouse BV-2 cells assessed as inhibition of NO release at 10 uM incubated for 24 hrs by Griess reagent based assay; type: functional
[17] = target: Amyloid-beta precursor protein (Homo sapiens) (UniProt P05067); experiment: Inhibition of self-induced amyloid beta (1 to 42) (unknown origin) aggregation assessed as short and thin fibrils incubated for 24 hrs by transmission electron microscopy
[18] = target: T2, Amine oxidase [flavin-containing] A (Homo sapiens, UniProt P21397); experiment: Inhibition of human recombinant MAO-A
T2 sequence (P21397 whole entry): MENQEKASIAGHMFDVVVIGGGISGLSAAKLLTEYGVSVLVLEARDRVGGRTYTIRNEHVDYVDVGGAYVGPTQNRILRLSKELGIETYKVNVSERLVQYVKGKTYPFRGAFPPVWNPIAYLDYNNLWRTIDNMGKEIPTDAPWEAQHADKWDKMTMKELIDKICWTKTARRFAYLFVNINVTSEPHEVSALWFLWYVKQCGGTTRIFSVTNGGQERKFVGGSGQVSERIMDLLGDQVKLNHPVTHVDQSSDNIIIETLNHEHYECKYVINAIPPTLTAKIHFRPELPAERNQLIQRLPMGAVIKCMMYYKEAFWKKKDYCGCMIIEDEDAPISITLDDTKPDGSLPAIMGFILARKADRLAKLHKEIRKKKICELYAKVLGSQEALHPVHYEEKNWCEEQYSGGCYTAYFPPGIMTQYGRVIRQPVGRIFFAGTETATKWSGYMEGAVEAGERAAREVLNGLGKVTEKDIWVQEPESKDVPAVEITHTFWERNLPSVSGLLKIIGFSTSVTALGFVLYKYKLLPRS

[19] = target: Amyloid-beta precursor protein (Homo sapiens) (UniProt P05067); experiment: Disaggregation of self-induced amyloid beta (1 to 42) (unknown origin) preformed fibrils at 25 uM by ThT fluorescence assay
[20] = Ratio of AUC in brain to plasma in BALB/c at 30 mg/kg, ig; type: ADME, organism-based; settings: mouse, po
PC-12 [21] = experiment: Neuroprotective activity against H2O2-induced cytotoxicity in rat PC12 cells assessed as cell viability at 2.5 uM by MTT assay (reference value: 54.9%); type: functional; settings: read-out: Activity
[22] = Metal chelating activity assessed as compound-Cu2+ complex formation by measuring red shift of absorption peak with declined absorption at 37.5 uM in presence of CuCl2 by UV-Vis spectrometry
BV-2 [23] = experiment: Anti-neuroinflammatory activity against LPS-stimulated mouse BV-2 cells assessed as inhibition of TNF-alpha release at 2.5 uM by ELISA; type: functional
PC-12 [24] = experiment: Neuroprotective activity against H2O2-induced cytotoxicity in rat PC12 cells assessed as cell viability at 1 uM by MTT assay (reference value: 54.9%); type: functional; settings: read-out: Activity
BV-2 [25] = experiment: Antioxidant activity against LPS-stimulated mouse BV-2 cells assessed as inhibition of ROS generation by measuring decrease in fluorescence intensity at 2.5 to 10 uM by DCFH-DA staining based fluorescence microscopy; type: functional, cell-based; settings: dose 2.5-10 µM
[26] = AUC (0 to t) in BALB/c mouse plasma at 30 mg/kg, ig; type: ADME, organism-based; settings: po
[27] = Cmax in BALB/c mouse brain at 30 mg/kg, ig; type: ADME, organism-based; settings: po
BV-2 [28] = experiment: Cytotoxicity against mouse BV-2 cells assessed as effect on cell viability at 2.5 to 25 uM by MTT assay; type: toxicity, cell-based; settings: bv-2, 25 µM, dose 2.5-25 µM
Mus musculus [29] = experiment: Anti-inflammatory activity against amyloid beta (1 to 42)-induced alzheimer's disease mouse model assessed as decrease in TNF-alpha content in hippocampus at 8 to 32 mg/kg and measured on day 6; type: functional, organism-based; settings: dose 8-32 mg/kg, time 6.0 day

Tmax [2]: 1 h | half-life [4]: 2.07 h | inhibition [5]: 57.5% | Activity [6]: 82.4% | AUCt [10]: 2032.5 ng·h/g | half-life [11]: 1.15 h | IC50 [13]: 410 nM | inhibition [14]: 56% | Cmax [15]: 1540 ng/mL | inhibition [17]: Active | Activity [19]: 81.9% | Kp [20]: 0.69 | Activity [22]: Active | AUC(0-t) [26]: 2940 ng·h/mL | Cmax [27]: 923 ng/g
Structure (SMILES): CCCCCCCC1OC(=O)c2cc(N3N=C(c4cc(Cl)ccc4O)CC3=O)ccc21 (centres undefined)
Activity (Mus musculus [1]): Active | inhibition at 0.5 µM (BV-2 [3]): 22.7% | Ratio [7]: 1.16 equiv | inhibition at 10 µM (BV-2 [8]): 71.6% | Activity (Mus musculus [9]): Active | inhibition at 2.5 µM (BV-2 [12]): 37.9% | inhibition at 10 µM (BV-2 [16]): 76.3% | IC50 [18]: > 10000 nM | viability at 2.5 µM (PC-12 [21]): 73.4% | inhibition at 2.5 µM (BV-2 [23]): 51.6% | viability at 1 µM (PC-12 [24]): 66.9% | Activity (BV-2 [25]): Active | Activity (BV-2 [28]): Non-Toxic | Activity (Mus musculus [29]): Active
